Measured values reported in ChEMBL document CHEMBL1938257, “Synthesis of monomeric derivatives to probe memoquin's bivalent interactions” (J Med Chem, 2011).
The source made the active and inactive calls. The rule behind the calls is not given here.

Assays:
[1] = Inhibition of gamma-secretase in chicken primary telencephalon neuron cells expressing APP assessed as inhibition of amyloid beta-40 production by electrochemiluminescence assay; settings: Gallus gallus
[2] = Inhibition of amyloid beta (1 to 42) self-aggregation assessed as fibril formation at 10 uM after 24 hrs by thioflavin T-based fluorometric assay
[3] = Neurotoxicity in chicken primary telencephalon neuron expressing APP assessed as reduction in neuronal viability at 0.01 to 50 uM after 24 hrs by MTT assay; set-up: species or system Gallus gallus
[4] = Inhibition of gamma-secretase in chicken primary telencephalon neuron cells expressing APP assessed as inhibition of amyloid beta-42 production by electrochemiluminescence assay; settings: Gallus gallus
Acetylcholinesterase [5] = target: T1, Acetylcholinesterase (Homo sapiens, UniProt P22303); assay: Inhibition of human recombinant AChE using acetylthiocholine iodide as substrate after 20 mins preincubation by Ellman method
Beta-secretase 1 [6] = target: T2, Beta-secretase 1 (Homo sapiens, UniProt P56817); assay: Inhibition of recombinant BACE1 expressed in baculovirus system using panvera peptide as substrate after 60 mins by spectrofluorometric analysis
Acetylcholinesterase [7] = target: T1, Acetylcholinesterase; assay: Inhibition of human recombinant AChE-induced amyloid beta 40 aggregation assessed as fibril formation at 100 uM after 24 hrs by thioflavin T-based fluorometric assay
Beta-secretase 1 [8] = target: T2, Beta-secretase 1; assay: Inhibition of recombinant BACE1 expressed in baculovirus system using panvera peptide as substrate at 3 uM after 60 mins by spectrofluorometric analysis
Beta-secretase 1 [9] = target: T2, Beta-secretase 1; assay: Inhibition of recombinant BACE1 expressed in baculovirus system using M-2420 as substrate preincubated for 1 hr before substrate addition measured after 15 mins by spectrofluorometric analysis
Cholinesterase = Cholinesterase (Homo sapiens, UniProt P06276); assay: Inhibition of human recombinant BuChE using butyrylthiocholine iodide as substrate after 20 mins preincubation by Ellman method
[10] = Inhibition of gamma-secretase in chicken primary telencephalon neuron cells expressing APP assessed as inhibition of amyloid beta-38 production by electrochemiluminescence assay; settings: Gallus gallus
Acetylcholinesterase [11] = target: T1, Acetylcholinesterase; assay: Inhibition of human recombinant AChE-induced amyloid beta (1-40) aggregation assessed as fibril formation after 24 hrs by thioflavin T-based fluorometric assay
[12] = Neurotoxicity in chicken primary telencephalon neuron expressing APP assessed as reduction in neuronal viability at 25 uM after 24 hrs by MTT assay; set-up: species or system Gallus gallus
[13] = Neurotoxicity in chicken primary telencephalon neuron expressing APP assessed as reduction in neuronal viability at 50 uM after 24 hrs by MTT assay; set-up: species or system Gallus gallus

Cholinesterase, sequence (P06276 whole entry): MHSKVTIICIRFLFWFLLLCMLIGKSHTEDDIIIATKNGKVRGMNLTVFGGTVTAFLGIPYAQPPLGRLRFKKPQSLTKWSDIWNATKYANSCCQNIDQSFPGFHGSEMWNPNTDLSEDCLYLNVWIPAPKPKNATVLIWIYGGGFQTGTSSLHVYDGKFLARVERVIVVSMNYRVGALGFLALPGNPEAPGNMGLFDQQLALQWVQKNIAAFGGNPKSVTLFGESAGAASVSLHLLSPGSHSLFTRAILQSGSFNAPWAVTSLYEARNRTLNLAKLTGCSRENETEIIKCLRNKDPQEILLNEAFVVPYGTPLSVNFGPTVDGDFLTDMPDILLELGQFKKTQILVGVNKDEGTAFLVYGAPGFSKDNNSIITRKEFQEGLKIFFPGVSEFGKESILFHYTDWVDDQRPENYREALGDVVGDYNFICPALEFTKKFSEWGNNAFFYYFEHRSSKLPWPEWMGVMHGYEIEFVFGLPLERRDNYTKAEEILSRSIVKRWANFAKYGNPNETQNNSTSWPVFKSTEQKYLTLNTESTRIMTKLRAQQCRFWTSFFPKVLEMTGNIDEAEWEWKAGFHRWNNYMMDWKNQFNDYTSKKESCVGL
T1 sequence (P22303 whole entry): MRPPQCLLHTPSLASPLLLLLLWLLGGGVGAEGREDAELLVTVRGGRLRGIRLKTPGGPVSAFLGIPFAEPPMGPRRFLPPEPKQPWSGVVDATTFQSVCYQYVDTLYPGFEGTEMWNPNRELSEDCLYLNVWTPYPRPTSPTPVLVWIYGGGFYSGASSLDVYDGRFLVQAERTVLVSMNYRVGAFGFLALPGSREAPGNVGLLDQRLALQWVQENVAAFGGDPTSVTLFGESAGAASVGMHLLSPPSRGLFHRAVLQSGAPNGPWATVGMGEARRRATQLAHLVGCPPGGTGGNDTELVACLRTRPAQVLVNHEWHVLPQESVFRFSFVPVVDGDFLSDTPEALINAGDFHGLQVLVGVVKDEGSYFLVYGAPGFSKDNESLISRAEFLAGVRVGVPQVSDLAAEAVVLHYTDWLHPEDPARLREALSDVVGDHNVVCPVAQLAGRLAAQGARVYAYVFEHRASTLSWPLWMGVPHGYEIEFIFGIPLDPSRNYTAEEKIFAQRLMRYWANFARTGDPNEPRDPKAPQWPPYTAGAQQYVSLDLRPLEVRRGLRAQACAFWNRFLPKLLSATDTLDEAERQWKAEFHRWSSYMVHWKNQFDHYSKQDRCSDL
T2 sequence (P56817 whole entry): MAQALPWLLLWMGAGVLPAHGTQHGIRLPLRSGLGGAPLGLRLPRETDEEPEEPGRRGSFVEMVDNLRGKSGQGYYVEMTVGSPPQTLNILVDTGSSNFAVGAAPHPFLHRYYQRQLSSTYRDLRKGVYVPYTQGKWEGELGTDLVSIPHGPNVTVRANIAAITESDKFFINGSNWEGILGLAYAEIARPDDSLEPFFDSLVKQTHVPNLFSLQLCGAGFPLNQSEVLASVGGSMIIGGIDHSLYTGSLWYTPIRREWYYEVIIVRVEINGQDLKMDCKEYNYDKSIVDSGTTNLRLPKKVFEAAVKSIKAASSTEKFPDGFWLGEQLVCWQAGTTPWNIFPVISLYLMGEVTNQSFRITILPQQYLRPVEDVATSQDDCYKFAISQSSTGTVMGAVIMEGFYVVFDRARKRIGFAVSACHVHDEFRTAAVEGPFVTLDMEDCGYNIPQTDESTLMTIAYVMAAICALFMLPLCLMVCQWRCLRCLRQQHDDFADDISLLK

| Compound | IC50 [1] [µM] | inhibition [2] [%] | Activity [3] | IC50 [4] [µM] | IC50 (Acetylcholinesterase [5]) [µM] | IC50 (Beta-secretase 1 [6]) [µM] | inhibition (Acetylcholinesterase [7]) [%] | inhibition (Beta-secretase 1 [8]) | IC50 (Beta-secretase 1 [9]) [µM] | IC50 (Cholinesterase) [µM] | IC50 [10] [µM] | IC50 (Acetylcholinesterase [11]) [µM] | Activity [12] | Activity [13] |
| --- | --- | --- | --- | --- | --- | --- | --- | --- | --- | --- | --- | --- | --- | --- |
| CCN(CCCCCCNC1=CC(=O)c2ccccc2C1=O)Cc1ccccc1OC | 21 | 27.3 | Non-toxic | 46 | 0.00973 | 2.8 | 69.1 | 60.2% | 3 | 1.49 | 19 | 45 |  |  |
| COc1ccccc1CN1CCC(N2CCC(NC3=CC(=O)c4ccccc4C3=O)CC2)CC1 |  | 21.4 |  |  | 17.2 |  |  | inactive |  | 3.16 |  |  |  |  |
| COc1ccccc1CNCCCCCCNC1=CC(=O)c2ccccc2C1=O |  | 29.5 |  |  | 1.85 |  |  | inactive |  | 3.32 |  |  |  |  |
| CCN(CCCCCCNC1=CC(=O)c2ncccc2C1=O)Cc1ccccc1OC |  | 15.4 |  |  | 0.0279 |  | 41.3 | inactive |  | 2.56 |  |  |  |  |
| COC1=CC(=O)C(N2CCC(C3CCN(Cc4ccccc4OC)CC3)CC2)=CC1=O |  | 20.5 |  |  | 24.4 |  |  | 32.9% |  | 3.58 |  |  | Toxic |  |
| CCN(CCCCCCNC1=CC(=O)C(C)=C(C)C1=O)Cc1ccccc1OC |  | 30.2 |  |  | 0.029 |  | 60.6 | 12.8% |  | 0.314 |  |  |  |  |
| CCN(CCCCCCNC1=CC(=O)C(NCCCCCCN(CC)Cc2ccccc2OC)=CC1=O)Cc1ccccc1OC [MEMOQUIN] |  | 66.8 |  |  |  |  |  | > 80% | 4.6 | 0.144 |  |  | Toxic |  |
| CCN(CCCCCCNC1=CC(=O)C(OC)=CC1=O)Cc1ccccc1OC |  | 45.7 |  |  | 0.0653 |  |  | 32.8% |  | 22.8 |  |  |  | Toxic |
| NCCCCCCNC1=CC(=O)c2ccccc2C1=O |  | 13.8 |  |  | 64.5 |  |  | inactive |  | 294 |  |  |  |  |
